Results taken from patent publication US7741283B2, “Compositions and methods for inhibiting cell proliferation” (St. Louis University, priority 2003, dated 2010).
Where a SMILES comes first, the peptide text is derived from it. The star is where a group is joined. Cbz = O=C(OCc1ccccc1)*

Key:
IRS-2 = assay: 32P metabolic labeling and immunoprecipitation of IRS-2, Mv1Lu cells; format: cell-based, mink; conditions: for Effect of proteolysis inhibitors on IGFBP-3-induced mobility change of IRS-2: Mv1Lu, 1 hr prior to and during IGFBP-3 treatment
acidic pH binding sites [1] = molecular target: T1, acidic pH binding sites (Mus musculus, UniProt P14824); assay: Specific binding of 125I-ligands to MEF cells at acidic pH; conditions: for Inhibition of ^125I-α2M* binding to cells: MEF cells, pH 5.5, verapamil and W-5 at 100 μM; for Specific binding of ^125I-α2M*: 10 μM protein, pH 5.5, MEF
T1 sequence (P14824 2-673): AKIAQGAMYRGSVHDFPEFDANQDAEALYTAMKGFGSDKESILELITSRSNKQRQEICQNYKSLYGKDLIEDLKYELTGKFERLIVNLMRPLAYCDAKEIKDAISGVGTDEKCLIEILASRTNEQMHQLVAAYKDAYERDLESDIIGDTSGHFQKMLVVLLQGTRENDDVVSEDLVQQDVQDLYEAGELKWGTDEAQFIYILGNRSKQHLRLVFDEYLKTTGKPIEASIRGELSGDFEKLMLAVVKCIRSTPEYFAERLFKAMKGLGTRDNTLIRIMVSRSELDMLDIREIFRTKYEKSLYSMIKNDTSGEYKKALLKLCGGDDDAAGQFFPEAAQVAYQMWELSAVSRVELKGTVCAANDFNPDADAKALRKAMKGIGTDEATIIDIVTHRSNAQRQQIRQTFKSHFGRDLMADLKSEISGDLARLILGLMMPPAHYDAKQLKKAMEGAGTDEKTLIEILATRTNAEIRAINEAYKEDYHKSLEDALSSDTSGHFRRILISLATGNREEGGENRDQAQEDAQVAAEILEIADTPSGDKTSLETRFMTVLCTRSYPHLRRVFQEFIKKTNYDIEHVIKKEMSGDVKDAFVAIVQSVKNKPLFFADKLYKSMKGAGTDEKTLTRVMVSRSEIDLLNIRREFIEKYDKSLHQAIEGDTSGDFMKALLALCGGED

Mv1Lu cells [2] = assay: Internalization and degradation of cell surface-bound 125I-TGF-β1 or 125I-α2M*, Mv1Lu cells; format: cell-based, mink; conditions: 10 μM, pH 7.4, 1 hr at 37° C.
Description: After 1 hr at 37° C., the medium was collected and precipitated with 10% trichloroacetic acid (TCA). The TCA-soluble radioactive material in the medium represented the cellular degradation products of 125I-TGF-β1 or 125I-α2M*. The cells were then treated with trypsin (5 mg/ml), maintained for 20 min at 0° C. and centrifuged. The radioactivity in the supernate and cell pellets represented cell surface-bound and internalized 125I-TGF-β1 or 125I-α2M*, respectively. The experiments were performed in quadruplicate.
After 2.5 hr, cells were washed, then warmed to 37° C.

LRP-1 [3] = molecular target: T2, LRP-1 (Mus musculus, UniProt Q91ZX7); assay: 125I-α2M* binding to MEF cells at pH 7.4; conditions: for ^125I-α2M* binding: 10 μM protein, pH 7.4, MEF
T2 construct: endogenous in cells; host or cells: MEF (mouse embryonic fibroblasts)

acidic pH binding sites [4] = molecular target: acidic pH binding sites (Neogale vison, UniProt A0A8C7BSJ2); assay: Specific binding of 125I-ligands to Mv1Lu cells at acidic pH; set-up: species or system mink; conditions: for Specific binding of ^125I-α2M*: 10 μM protein, pH 5.5, Mv1Lu
LRP-1 [5] = assay: 125I-α2M* binding to Mv1Lu cells at pH 7.4; set-up: species or system mink; conditions: for ^125I-α2M* binding: 10 μM protein, pH 7.4, Mv1Lu; for ^125I-α2M* binding to LRP-1: 10 μg/ml, neutral pH, Mv1Lu cells
acidic pH binding sites [6] = molecular target: T1, acidic pH binding sites; assay: Specific binding of 125I-ligands to PEA-13 cells at acidic pH; set-up: endogenous in cells; host or cells: PEA-13 (LRP-1-deficient mouse embryonic fibroblasts); conditions: for Specific binding of ^125I-α2M*: 10 μM protein, pH 5.5, PEA-13
Mv1Lu cells [7] = assay: [methyl-3H] thymidine incorporation (DNA synthesis), Mv1Lu cells; format: cell-based, mink; conditions: insulin 10 nM or cyclic RGD peptide 0.01 μg/ml alone

Sequence of acidic pH binding sites (Neogale vison, UniProt A0A8C7BSJ2) (A0A8C7BSJ2 entry or part of it): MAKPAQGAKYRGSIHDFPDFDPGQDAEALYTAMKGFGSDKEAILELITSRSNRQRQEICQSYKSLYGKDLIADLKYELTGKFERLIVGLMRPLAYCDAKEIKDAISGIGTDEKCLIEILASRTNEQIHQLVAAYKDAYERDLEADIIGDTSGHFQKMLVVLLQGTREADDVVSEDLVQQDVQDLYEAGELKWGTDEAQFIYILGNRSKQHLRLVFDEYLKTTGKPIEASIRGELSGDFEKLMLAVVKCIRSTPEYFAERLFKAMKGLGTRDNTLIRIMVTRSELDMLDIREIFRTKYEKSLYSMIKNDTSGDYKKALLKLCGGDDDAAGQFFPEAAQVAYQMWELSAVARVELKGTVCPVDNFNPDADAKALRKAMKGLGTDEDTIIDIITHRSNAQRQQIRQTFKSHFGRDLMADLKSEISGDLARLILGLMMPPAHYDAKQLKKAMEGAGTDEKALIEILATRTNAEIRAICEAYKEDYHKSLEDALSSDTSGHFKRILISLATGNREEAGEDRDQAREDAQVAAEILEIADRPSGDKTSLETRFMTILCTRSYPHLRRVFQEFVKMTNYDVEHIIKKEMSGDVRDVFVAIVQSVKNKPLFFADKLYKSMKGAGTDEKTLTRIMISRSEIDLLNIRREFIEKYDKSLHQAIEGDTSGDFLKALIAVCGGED
T2 sequence (Q91ZX7 20-4545): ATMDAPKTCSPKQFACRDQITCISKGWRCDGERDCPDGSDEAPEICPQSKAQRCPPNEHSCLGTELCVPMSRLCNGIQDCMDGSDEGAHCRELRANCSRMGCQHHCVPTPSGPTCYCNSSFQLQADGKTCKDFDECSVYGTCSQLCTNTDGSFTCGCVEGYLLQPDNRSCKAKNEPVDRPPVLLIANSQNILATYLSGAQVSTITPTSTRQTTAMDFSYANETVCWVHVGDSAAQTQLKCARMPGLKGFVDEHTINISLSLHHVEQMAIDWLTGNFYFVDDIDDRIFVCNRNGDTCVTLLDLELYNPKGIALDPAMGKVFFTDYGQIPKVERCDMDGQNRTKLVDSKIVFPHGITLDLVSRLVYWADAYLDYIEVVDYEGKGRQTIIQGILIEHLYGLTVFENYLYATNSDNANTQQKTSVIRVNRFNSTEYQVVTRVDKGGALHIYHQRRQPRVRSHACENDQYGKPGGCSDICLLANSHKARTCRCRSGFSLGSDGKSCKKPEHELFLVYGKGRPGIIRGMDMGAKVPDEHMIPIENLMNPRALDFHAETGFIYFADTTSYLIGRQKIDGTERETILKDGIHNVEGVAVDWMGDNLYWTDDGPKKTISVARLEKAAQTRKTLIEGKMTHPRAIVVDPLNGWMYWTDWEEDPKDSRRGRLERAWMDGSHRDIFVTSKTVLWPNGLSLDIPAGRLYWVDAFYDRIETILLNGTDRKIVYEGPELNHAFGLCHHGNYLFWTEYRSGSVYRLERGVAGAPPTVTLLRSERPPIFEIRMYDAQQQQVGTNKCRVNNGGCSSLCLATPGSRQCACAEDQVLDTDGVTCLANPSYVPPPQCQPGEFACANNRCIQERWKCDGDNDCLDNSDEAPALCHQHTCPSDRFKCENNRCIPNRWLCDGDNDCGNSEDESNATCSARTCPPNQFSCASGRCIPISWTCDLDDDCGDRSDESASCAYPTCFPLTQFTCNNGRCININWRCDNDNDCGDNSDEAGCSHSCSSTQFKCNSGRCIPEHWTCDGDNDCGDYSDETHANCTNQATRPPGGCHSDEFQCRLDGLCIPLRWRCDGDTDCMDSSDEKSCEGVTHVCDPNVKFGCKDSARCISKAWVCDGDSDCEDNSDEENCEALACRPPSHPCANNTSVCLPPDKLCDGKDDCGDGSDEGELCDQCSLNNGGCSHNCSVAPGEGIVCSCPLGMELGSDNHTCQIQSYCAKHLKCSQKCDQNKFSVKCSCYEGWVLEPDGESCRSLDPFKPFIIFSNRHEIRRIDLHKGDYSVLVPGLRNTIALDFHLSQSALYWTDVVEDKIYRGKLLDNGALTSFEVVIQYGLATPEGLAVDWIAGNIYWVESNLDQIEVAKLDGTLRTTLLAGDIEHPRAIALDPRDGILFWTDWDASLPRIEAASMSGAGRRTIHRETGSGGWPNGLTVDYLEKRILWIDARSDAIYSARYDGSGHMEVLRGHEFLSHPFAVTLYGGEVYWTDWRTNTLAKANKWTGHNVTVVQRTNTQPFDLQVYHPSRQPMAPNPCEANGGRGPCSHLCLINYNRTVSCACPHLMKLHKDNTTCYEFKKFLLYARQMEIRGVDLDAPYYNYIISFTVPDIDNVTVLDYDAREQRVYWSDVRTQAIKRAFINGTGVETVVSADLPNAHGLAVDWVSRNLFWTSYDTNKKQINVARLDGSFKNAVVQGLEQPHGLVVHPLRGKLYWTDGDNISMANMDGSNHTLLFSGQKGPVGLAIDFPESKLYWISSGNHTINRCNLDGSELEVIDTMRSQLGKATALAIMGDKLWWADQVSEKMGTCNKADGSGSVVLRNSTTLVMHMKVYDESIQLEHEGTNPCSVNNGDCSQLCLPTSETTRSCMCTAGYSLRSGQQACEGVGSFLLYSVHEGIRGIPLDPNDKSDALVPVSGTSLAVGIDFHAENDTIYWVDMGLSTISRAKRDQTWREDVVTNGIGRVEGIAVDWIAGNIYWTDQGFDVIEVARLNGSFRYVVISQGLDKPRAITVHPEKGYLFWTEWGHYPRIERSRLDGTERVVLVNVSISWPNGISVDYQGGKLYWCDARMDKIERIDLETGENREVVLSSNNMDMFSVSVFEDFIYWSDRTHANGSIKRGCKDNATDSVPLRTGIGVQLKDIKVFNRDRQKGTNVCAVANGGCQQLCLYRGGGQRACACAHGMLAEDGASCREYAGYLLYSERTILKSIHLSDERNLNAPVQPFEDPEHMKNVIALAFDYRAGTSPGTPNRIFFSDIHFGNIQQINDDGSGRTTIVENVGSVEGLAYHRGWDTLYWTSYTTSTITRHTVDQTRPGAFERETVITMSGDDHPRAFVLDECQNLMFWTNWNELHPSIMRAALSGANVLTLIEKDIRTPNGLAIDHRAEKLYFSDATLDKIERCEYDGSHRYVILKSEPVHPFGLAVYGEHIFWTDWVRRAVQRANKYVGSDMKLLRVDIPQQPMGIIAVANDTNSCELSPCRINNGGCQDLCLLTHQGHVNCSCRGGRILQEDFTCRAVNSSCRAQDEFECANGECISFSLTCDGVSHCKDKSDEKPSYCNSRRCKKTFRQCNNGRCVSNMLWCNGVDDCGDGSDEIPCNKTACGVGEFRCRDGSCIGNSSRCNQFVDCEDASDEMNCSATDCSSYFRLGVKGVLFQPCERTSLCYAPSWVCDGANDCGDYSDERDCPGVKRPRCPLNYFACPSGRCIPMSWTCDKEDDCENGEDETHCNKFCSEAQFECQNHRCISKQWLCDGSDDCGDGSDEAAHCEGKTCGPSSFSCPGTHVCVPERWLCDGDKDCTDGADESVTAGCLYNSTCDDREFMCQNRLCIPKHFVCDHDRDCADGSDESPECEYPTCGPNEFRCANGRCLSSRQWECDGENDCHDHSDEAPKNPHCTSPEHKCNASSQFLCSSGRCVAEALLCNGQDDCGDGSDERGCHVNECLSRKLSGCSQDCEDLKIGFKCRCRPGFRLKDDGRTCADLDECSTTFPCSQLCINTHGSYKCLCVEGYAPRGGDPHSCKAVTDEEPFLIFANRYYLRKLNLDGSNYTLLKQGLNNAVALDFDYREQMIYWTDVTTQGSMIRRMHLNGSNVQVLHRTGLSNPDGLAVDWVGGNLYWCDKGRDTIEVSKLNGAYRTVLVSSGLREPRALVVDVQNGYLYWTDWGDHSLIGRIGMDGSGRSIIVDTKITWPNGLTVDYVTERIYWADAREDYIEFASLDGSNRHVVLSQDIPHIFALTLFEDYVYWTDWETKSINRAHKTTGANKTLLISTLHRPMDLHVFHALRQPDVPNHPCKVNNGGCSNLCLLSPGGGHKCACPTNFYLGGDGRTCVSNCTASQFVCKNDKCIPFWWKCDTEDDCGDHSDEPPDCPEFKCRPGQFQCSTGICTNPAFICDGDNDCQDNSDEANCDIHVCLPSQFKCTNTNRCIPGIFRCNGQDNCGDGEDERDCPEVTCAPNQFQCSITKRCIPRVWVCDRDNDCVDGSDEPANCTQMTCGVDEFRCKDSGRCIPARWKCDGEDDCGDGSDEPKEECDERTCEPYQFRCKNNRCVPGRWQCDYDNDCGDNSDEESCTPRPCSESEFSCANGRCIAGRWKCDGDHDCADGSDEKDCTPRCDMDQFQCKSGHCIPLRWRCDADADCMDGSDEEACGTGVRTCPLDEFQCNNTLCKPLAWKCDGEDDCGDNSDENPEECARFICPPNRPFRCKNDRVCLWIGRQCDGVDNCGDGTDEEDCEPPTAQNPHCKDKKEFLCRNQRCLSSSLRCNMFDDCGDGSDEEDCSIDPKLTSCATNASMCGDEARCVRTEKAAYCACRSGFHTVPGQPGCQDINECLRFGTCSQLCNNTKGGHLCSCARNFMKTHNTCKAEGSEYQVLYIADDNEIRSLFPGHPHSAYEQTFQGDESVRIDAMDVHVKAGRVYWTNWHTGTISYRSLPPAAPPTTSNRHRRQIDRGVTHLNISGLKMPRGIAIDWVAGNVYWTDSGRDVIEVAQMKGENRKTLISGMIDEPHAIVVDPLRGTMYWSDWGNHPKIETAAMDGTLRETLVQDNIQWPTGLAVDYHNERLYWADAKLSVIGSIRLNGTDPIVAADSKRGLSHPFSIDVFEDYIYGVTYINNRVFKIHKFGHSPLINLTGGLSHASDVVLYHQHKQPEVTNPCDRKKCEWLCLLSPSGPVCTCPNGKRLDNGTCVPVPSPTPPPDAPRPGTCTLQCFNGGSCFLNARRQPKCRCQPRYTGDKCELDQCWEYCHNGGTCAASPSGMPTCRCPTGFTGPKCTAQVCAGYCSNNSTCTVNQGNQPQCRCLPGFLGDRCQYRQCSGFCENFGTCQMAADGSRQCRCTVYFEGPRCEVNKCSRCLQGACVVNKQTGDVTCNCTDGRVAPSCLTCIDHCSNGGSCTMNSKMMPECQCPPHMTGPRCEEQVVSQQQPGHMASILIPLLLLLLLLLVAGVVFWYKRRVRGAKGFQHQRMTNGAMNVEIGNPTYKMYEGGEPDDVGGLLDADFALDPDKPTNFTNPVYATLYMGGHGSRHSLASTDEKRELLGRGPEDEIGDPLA

CC(C)C[C@@H](C=O)NC(=O)[C@H](CC(C)C)NC(=O)[C@H](CC(C)C)NC(=O)OCc1ccccc1 [MG-132, reference compound] (Cbz-Leu-Leu-Leu-aldehyde)
Effect of proteolysis inhibitors on IGFBP-3-induced mobility change of IRS-2 (IRS-2): did not affect

NCCCCCCNS(=O)(=O)c1cccc2ccccc12 [W-5, reference compound]
Inhibition of ^125I-α2M* binding to cells (acidic pH binding sites [1]): inactive

NCCCCCCNS(=O)(=O)c1cccc2c(Cl)cccc12 [W-7, reference compound]
Inhibition of ^125I-α2M* binding to cells (acidic pH binding sites [1]): less effective inhibitors

CSCC[C@@H](C=O)NC(=O)[C@H](CC(C)C)NC(=O)[C@H](CC(C)C)NC(C)=O [calpain inhibitor II, reference compound] (Ac-Leu-Leu-Met-aldehyde)
Effect of proteolysis inhibitors on IGFBP-3-induced mobility change of IRS-2 (IRS-2): did not affect

COC[C@@H]([C@H](O)[C@H](O)C(=O)NCC[C@H](C)c1nc(/C=C/C[C@@H]2O[C@]3(C[C@@H](O)[C@@H]2C)O[C@H]([C@H](C[C@H](O)[C@H](C)[C@H](O)[C@H](C)/C=C(C)/C(C)=C/C=C/C(C)=C\C#N)OC)[C@H](OP(=O)(O)O)C3(C)C)co1)N(C)C [calyculin A, reference compound]
Effect of phosphatase inhibitors on IGFBP-3-induced specific dephosphorylation / mobility change of IRS-2 (IRS-2): did not appear to affect

CC1(C(=O)O)C2CCC(O2)C1(C)C(=O)O (centres unmarked) [cantharidic acid, reference compound]
Effect of phosphatase inhibitors on IGFBP-3-induced specific dephosphorylation / mobility change of IRS-2 (IRS-2): did not appear to affect

OCCN1CCN(CCCN2c3ccccc3Sc3ccc(C(F)(F)F)cc32)CC1 [fluphenazine]
Degradation of cell surface-bound ^125I-TGF-β1 or ^125I-α2M* (Mv1Lu cells [2]): completely inhibits

CN(C)c1cccc2c(S(=O)(=O)NCCCCCN)cccc12 [monodansylcadaverine, reference compound]
Inhibition of ^125I-α2M* binding to cells (acidic pH binding sites [1]): less effective inhibitors

C=C1[C@@H](O)[C@@H]2O[C@]3(CC[C@H](/C=C/[C@@H](C)[C@@H]4CC(C)=C[C@@]5(O[C@H](C[C@@](C)(O)C(=O)O)CC[C@H]5O)O4)O3)CC[C@H]2O[C@@H]1[C@@H](O)C[C@H](C)[C@H]1O[C@@]2(CCCCO2)CC[C@H]1C [okadaic acid, reference compound]
Effect of phosphatase inhibitors on IGFBP-3-induced specific dephosphorylation / mobility change of IRS-2 (IRS-2): effectively blocked

CC(CN1c2ccccc2Sc2ccccc21)N(C)C (centres unmarked) [promethazine, reference compound]
Inhibition of ^125I-α2M* binding to cells (acidic pH binding sites [1]): not effective | Inhibition of ^125I-α2M* binding (LRP-1 [3]; MEF cells, pH 7.4): almost as effective as trifluoperazine and fluphenazine | Degradation of cell surface-bound ^125I-TGF-β1 or ^125I-α2M* (Mv1Lu cells [2]): did not exhibit any significant effect | Degradation of cell surface-bound ^125I-TGF-β1 or ^125I-α2M* (Mv1Lu cells [2]; listed as Promethazine): ineffective

[O]=[V]([O-])([O-])[O-] [vanadale, reference compound]
Effect of phosphatase inhibitors on IGFBP-3-induced specific dephosphorylation / mobility change of IRS-2 (IRS-2): did not appear to affect

Pseudomonas exotoxin: a ligand of LRP-1
Inhibition of ^125I-α2M* binding to cells (acidic pH binding sites [4]; 0.5 μM, Mv1Lu cells, pH 5 or 6): did not effectively inhibit

apoE: human apoE
Specific binding of ^125I-α2M* (acidic pH binding sites [1]): completely blocked | ^125I-α2M* binding (LRP-1 [3]): did not have a significant effect | ^125I-α2M* binding (LRP-1 [5]): did not have a significant effect | Specific binding of ^125I-α2M* (acidic pH binding sites [4]): completely blocked | Specific binding of ^125I-α2M* (acidic pH binding sites [6]): completely blocked

chondroitin sulfate A [reference compound]
^125I-α2M* binding to LRP-1 (LRP-1 [5]): did not significantly affect | Inhibition of ^125I-α2M* binding (acidic pH binding sites [4]; Mv1Lu cells, pH 5): potent inhibitors

chondroitin sulfate B [reference compound]
^125I-α2M* binding to LRP-1 (LRP-1 [5]): did not significantly affect | Inhibition of ^125I-α2M* binding (acidic pH binding sites [4]; Mv1Lu cells, pH 5): potent inhibitors

chondroitin sulfate C [reference compound]
^125I-α2M* binding to LRP-1 (LRP-1 [5]): did not significantly affect | Inhibition of ^125I-α2M* binding (acidic pH binding sites [4]; Mv1Lu cells, pH 5): potent inhibitors

cyclo GRGDSPA (cyclic) [cyclic RGD peptide, reference compound]
Effect alone on TGF-β1-induced inhibition of DNA synthesis (Mv1Lu cells [7]): Neither insulin (10 nM) nor the cyclic RGD peptide (0.01 μg/ml) alone affected

heparin sulfate [reference compound]
^125I-α2M* binding to LRP-1 (LRP-1 [5]): did not significantly affect | Enhancement of ^125I-α2M* binding (acidic pH binding sites [4]; 1 μg/ml, Mv1Lu cells, pH 5): ~400% | Inhibition of ^125I-α2M* binding (acidic pH binding sites [4]; 10 μg/ml, Mv1Lu cells, pH 5): > 80%

microcystin [reference compound]
Effect of phosphatase inhibitors on IGFBP-3-induced specific dephosphorylation / mobility change of IRS-2 (IRS-2): did not appear to affect

native α2M: human α2-macroglobulin purified from plasma
IC50 (acidic pH binding sites [6]; PEA-13 cells, acidic pH, read-out: IC50, inhibition of ^125I-α2M* binding): > 400 nM

transferrin: human transferrin
Specific binding of ^125I-α2M* (acidic pH binding sites [1]): completely blocked | ^125I-α2M* binding (LRP-1 [3]): did not have a significant effect | ^125I-α2M* binding (LRP-1 [5]): did not have a significant effect | Specific binding of ^125I-α2M* (acidic pH binding sites [4]): completely blocked | IC50 (acidic pH binding sites [4]; Mv1Lu cells, pH 5 or 6, read-out: IC50, inhibition of ^125I-α2M* binding to cells): ~500 nM | Specific binding of ^125I-α2M* (acidic pH binding sites [6]): completely blocked
